In patent US9434743B2, “Indazole derivatives” (TAKEDA PHARMACEUTICAL COMPANY LIMITED, priority 2012, dated 2016):

Tests used:
[1] = biological target: T1, human MetAP2 enzyme (Homo sapiens, UniProt P50579); experiment: MetAP2 enzyme assay, enzyme complexed with cobalt ions; details: MetAP2 Co pIC50, MetAP2 enzyme complexed with cobalt ions; Met-AMC substrate at Km
[2] = biological target: T1, human MetAP2 enzyme; experiment: MetAP2 enzyme assay, enzyme complexed with manganese ions; details: MetAP2 Mn pIC50, MetAP2 enzyme complexed with manganese ions; Met-AMC substrate at Km

T1 sequence (P50579 whole entry): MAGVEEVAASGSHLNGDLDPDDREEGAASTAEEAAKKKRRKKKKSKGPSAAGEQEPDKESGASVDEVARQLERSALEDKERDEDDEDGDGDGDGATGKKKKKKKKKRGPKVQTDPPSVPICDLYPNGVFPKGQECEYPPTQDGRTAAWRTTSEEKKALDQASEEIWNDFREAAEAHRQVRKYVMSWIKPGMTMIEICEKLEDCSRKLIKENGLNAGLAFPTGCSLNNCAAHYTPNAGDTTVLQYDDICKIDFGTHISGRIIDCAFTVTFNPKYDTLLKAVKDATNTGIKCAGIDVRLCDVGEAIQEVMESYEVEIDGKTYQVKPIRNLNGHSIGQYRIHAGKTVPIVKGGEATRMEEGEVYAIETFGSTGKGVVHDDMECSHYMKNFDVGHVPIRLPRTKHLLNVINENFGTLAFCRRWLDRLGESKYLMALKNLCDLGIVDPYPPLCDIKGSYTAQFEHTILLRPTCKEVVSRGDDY

Cc1c[nH]c2ncc(-c3cc(C(F)(F)F)cc4[nH]ncc34)cc12 [Example 340, 4-(3-methyl-1H-pyrrolo[2,3-b]pyridin-5-yl)-6-(trifluoromethyl)-1H-indazole]
IC50 [1]: 0.1 µM | IC50 [2]: 0.0158 µM

Cn1ncc2ccc(-c3cc(C(F)(F)F)cc4[nH]ncc34)cc21 [Example 24, 1′-methyl-6-(trifluoromethyl)-1H,1′H-4,6′-biindazole]
IC50 [1]: 0.0316 µM | IC50 [2]: 0.0126 µM

CN1CCN(C(=O)c2cc(-c3cc(C(F)(F)F)cc4[nH]ncc34)cnc2N)CC1 [Example 282, (2-amino-5-(6-(trifluoromethyl)-1H-indazol-4-yl)pyridin-3-yl)(4-methylpiperazin-1-yl)methanone]
IC50 [1]: 0.0501 µM | IC50 [2]: 0.00631 µM

COc1ccc(-c2cc(C(F)(F)F)cc3[nH]ncc23)c(C)n1 [Example 249, 4-(6-methoxy-2-methylpyridin-3-yl)-6-(trifluoromethyl)-1H-indazole]
IC50 [1]: 0.0794 µM | IC50 [2]: 0.0126 µM

COc1ccc(-c2cc(C(F)(F)F)cc3[nH]ncc23)c(CO)c1 [Example 189, (5-methoxy-2-(6-(trifluoromethyl)-1H-indazol-4-yl)phenyl)methanol]
IC50 [1]: 0.0501 µM | IC50 [2]: 0.00501 µM

Cc1nn(C(F)F)c(C)c1-c1cc(C(F)(F)F)cc2[nH]ncc12 [Example 348, 4-(1-(difluoromethyl)-3,5-dimethyl-1H-pyrazol-4-yl)-6-(trifluoromethyl)-1H-indazole]
IC50 [1]: 0.0794 µM | IC50 [2]: 0.0126 µM

FC(F)(F)c1cc(-c2cccc3[nH]ccc23)c2cn[nH]c2c1 [Example 81, 4-(1H-indol-4-yl)-6-(trifluoromethyl)-1H-indazole]
IC50 [1]: 0.0398 µM | IC50 [2]: 0.0158 µM

CCNC(=O)Cn1c(=O)c(-c2cc(C(F)(F)F)cc3[nH]ncc23)cn(C)c1=O [Example 302, N-ethyl-2-(3-methyl-2,6-dioxo-5-(6-(trifluoromethyl)-1H-indazol-4-yl)-2,3-dihydropyrimidin-1(6H)-yl)acetamide]
IC50 [1]: 0.501 µM | IC50 [2]: 0.00631 µM

COc1ccc(C(N)=O)cc1-c1cc(C(F)(F)F)cc2[nH]ncc12 [Example 273, 4-methoxy-3-(6-(trifluoromethyl)-1H-indazol-4-yl)benzamide]
IC50 [1]: 0.02 µM | IC50 [2]: 0.00398 µM

O=C1COc2c(cccc2-c2cc(C(F)(F)F)cc3[nH]ncc23)N1 [Example 139, 8-(6-(trifluoromethyl)-1H-indazol-4-yl)-2H-benzo[b][1,4]oxazin-3(4H)-one]
IC50 [1]: 0.0398 µM | IC50 [2]: 0.01 µM

O=C1Cc2c(cccc2-c2cc(C(F)(F)F)cc3[nH]ncc23)N1 [Example 129, 4-(6-(trifluoromethyl)-1H-indazol-4-yl)indolin-2-one]
IC50 [1]: 0.01 µM | IC50 [2]: 0.00398 µM

COc1cccc(-c2cc(C(F)(F)F)cc3[nH]ncc23)c1OC [Example 87, 4-(2,3-dimethoxyphenyl)-6-(trifluoromethyl)-1H-indazole]
IC50 [1]: 0.126 µM | IC50 [2]: 0.00794 µM

OCCn1cc(-c2cc(C(F)(F)F)cc3[nH]ncc23)cn1 [Example 349, 2-(4-(6-(trifluoromethyl)-1H-indazol-4-yl)-1H-pyrazol-1-yl)ethanol]
IC50 [1]: 0.1 µM | IC50 [2]: 0.00631 µM

CC(=O)Nc1cc(C)c(-c2cc(C(F)(F)F)cc3[nH]ncc23)cn1 [Example 179, N-(4-methyl-5-(6-(trifluoromethyl)-1H-indazol-4-yl)pyridin-2-yl)acetamide]
IC50 [1]: 0.0251 µM | IC50 [2]: 0.01 µM

Cc1cc(S(N)(=O)=O)ccc1-c1cc(C(F)(F)F)cc2[nH]ncc12 [Example 186, 3-methyl-4-(6-(trifluoromethyl)-1H-indazol-4-yl)benzenesulfonamide]
IC50 [1]: 0.02 µM | IC50 [2]: 0.00794 µM

CC(=O)Cn1nc(C)c(-c2cc(C(F)(F)F)cc3[nH]ncc23)c1C [Example 324, 1-(3,5-dimethyl-4-(6-(trifluoromethyl)-1H-indazol-4-yl)-1H-pyrazol-1-yl)propan-2-one]
IC50 [1]: 0.0631 µM | IC50 [2]: 0.0316 µM

COc1nc(C#N)ccc1-c1cc(C(F)(F)F)cc2[nH]ncc12 [Example 396, 6-methoxy-5-(6-(trifluoromethyl)-1H-indazol-4-yl)picolinonitrile]
IC50 [1]: 0.126 µM | IC50 [2]: 0.0126 µM

COc1ccc(C(=O)NCCO)cc1-c1cc(C(F)(F)F)cc2[nH]ncc12 [Example 268, N-(2-hydroxyethyl)-4-methoxy-3-(6-(trifluoromethyl)-1H-indazol-4-yl)benzamide]
IC50 [1]: 0.0398 µM | IC50 [2]: 0.0158 µM

Nc1ccc(-c2cc(C(F)(F)F)cc3[nH]ncc23)cn1 [Example 16, 5-(6-(trifluoromethyl)-1H-indazol-4-yl)pyridin-2-amine]
IC50 [1]: 0.0316 µM | IC50 [2]: 0.00501 µM

FC(F)(F)c1cc(-c2cnc(NC3CC3)nc2)c2cn[nH]c2c1 [Example 197, N-cyclopropyl-5-(6-(trifluoromethyl)-1H-indazol-4-yl)pyrimidin-2-amine]
IC50 [1]: 0.0631 µM | IC50 [2]: 0.00631 µM

COc1ccc(C(=O)N2CCN(C)C(=O)C2)cc1-c1cc(C(F)(F)F)cc2[nH]ncc12 [Example 325, 4-(4-methoxy-3-(6-(trifluoromethyl)-1H-indazol-4-yl)benzoyl)-1-methylpiperazin-2-one]
IC50 [1]: 0.0631 µM | IC50 [2]: 0.0251 µM

Cc1nc(NS(=O)(=O)c2cnn(C)c2)ccc1-c1cc(C(F)(F)F)cc2[nH]ncc12 [Example 259, 1-methyl-N-(6-methyl-5-(6-(trifluoromethyl)-1H-indazol-4-yl)pyridin-2-yl)-1H-pyrazole-4-sulfonamide]
IC50 [1]: 0.0316 µM | IC50 [2]: 0.00794 µM

Cc1nn(CC(=O)NC(C)C)c(C)c1-c1cc(C(F)(F)F)cc2[nH]ncc12 [Example 352, 2-(3,5-dimethyl-4-(6-(trifluoromethyl)-1H-indazol-4-yl)-1H-pyrazol-1-yl)-N-isopropylacetamide]
IC50 [1]: 0.0398 µM | IC50 [2]: 0.02 µM

NC(=O)Cn1cc(-c2cc(C(F)(F)F)cc3[nH]ncc23)cn1 [Example 264, 2-(4-(6-(trifluoromethyl)-1H-indazol-4-yl)-1H-pyrazol-1-yl)acetamide]
IC50 [1]: 0.1 µM | IC50 [2]: 0.00631 µM

Cc1cc(=O)[nH]cc1-c1cc(C(F)(F)F)cc2[nH]ncc12 [Example 390, 4-methyl-5-(6-(trifluoromethyl)-1H-indazol-4-yl)pyridin-2(1H)-one]
IC50 [1]: 0.0398 µM | IC50 [2]: 0.00631 µM

N#Cc1cnc(N)c(-c2cc(C(F)(F)F)cc3[nH]ncc23)c1 [Example 212, 6-amino-5-(6-(trifluoromethyl)-1H-indazol-4-yl)nicotinonitrile]
IC50 [1]: 0.2 µM | IC50 [2]: 0.01 µM

COc1ncc(-c2cc(C(F)(F)F)cc3[nH]ncc23)cn1 [Example 246, 4-(2-methoxypyrimidin-5-yl)-6-(trifluoromethyl)-1H-indazole]
IC50 [1]: 0.1 µM | IC50 [2]: 0.00316 µM

O=C1Cc2cc(-c3cc(C(F)(F)F)cc4[nH]ncc34)ccc2N1 [Example 235, 5-(6-(trifluoromethyl)-1H-indazol-4-yl)indolin-2-one]
IC50 [1]: 0.0126 µM | IC50 [2]: 0.00398 µM

Cc1nn(CCN)c(C)c1-c1cc(C(F)(F)F)cc2[nH]ncc12 [Example 176, 2-(3,5-dimethyl-4-(6-(trifluoromethyl)-1H-indazol-4-yl)-1H-pyrazol-1-yl)ethanamine]
IC50 [1]: 0.0398 µM | IC50 [2]: 0.0126 µM

COc1ccn2c(-c3cc(C(F)(F)F)cc4[nH]ncc34)cnc2c1C#N [Example 160, 7-methoxy-3-(6-(trifluoromethyl)-1H-indazol-4-yl)imidazo[1,2-a]pyridine-8-carbonitrile]
IC50 [1]: 0.0794 µM | IC50 [2]: 0.0398 µM

Cc1nc(C(N)=O)ccc1-c1cc(C(F)(F)F)cc2[nH]ncc12 [Example 379, 6-methyl-5-(6-(trifluoromethyl)-1H-indazol-4-yl)picolinamide]
IC50 [1]: 0.0398 µM | IC50 [2]: 0.00631 µM

CS(=O)(=O)NCc1ccc(-c2cc(C(F)(F)F)cc3[nH]ncc23)cc1 [Example 95, N-(4-(6-(trifluoromethyl)-1H-indazol-4-yl)benzyl)methanesulfonamide]
IC50 [1]: 0.02 µM | IC50 [2]: 0.00316 µM

COc1ncc(-c2cc(C(F)(F)F)cc3[nH]ncc23)cc1C(=O)NCCO [Example 229, N-(2-hydroxyethyl)-2-methoxy-5-(6-(trifluoromethyl)-1H-indazol-4-yl)nicotinamide]
IC50 [1]: 0.0631 µM | IC50 [2]: 0.00631 µM

COc1ccncc1-c1cc(C(F)(F)F)cc2[nH]ncc12 [Example 30, 4-(4-methoxypyridin-3-yl)-6-(trifluoromethyl)-1H-indazole]
IC50 [1]: 0.0794 µM | IC50 [2]: 0.0251 µM

FC(F)(F)c1cc(-c2cccnc2OCc2ccccc2)c2cn[nH]c2c1 [Example 99, 4-(2-(benzyloxy)pyridin-3-yl)-6-(trifluoromethyl)-1H-indazole]
IC50 [1]: 0.631 µM | IC50 [2]: 0.0398 µM

Cn1cc(-c2cc(C(F)(F)F)cc3[nH]ncc23)c(=O)n(CC#N)c1=O [Example 312, 2-(3-methyl-2,6-dioxo-5-(6-(trifluoromethyl)-1H-indazol-4-yl)-2,3-dihydropyrimidin-1(6H)-yl)acetonitrile]
IC50 [1]: 1 µM | IC50 [2]: 0.0251 µM

Cc1nn(C[C@@H]2CCC(=O)N2)c(C)c1-c1cc(C(F)(F)F)cc2[nH]ncc12 [Example 364, (5S)-5-((3,5-dimethyl-4-(6-(trifluoromethyl)-1H-indazol-4-yl)-1H-pyrazol-1-yl)methyl)pyrrolidin-2-one]
IC50 [1]: 0.0794 µM | IC50 [2]: 0.02 µM

COc1ccc(CC(=O)NCCO)cc1-c1cc(C(F)(F)F)cc2[nH]ncc12 [Example 320, N-(2-hydroxyethyl)-2-(4-methoxy-3-(6-(trifluoromethyl)-1H-indazol-4-yl)phenyl)acetamide]
IC50 [1]: 0.0251 µM | IC50 [2]: 0.0158 µM

O=C(O)c1ncncc1-c1cc(C(F)(F)F)cc2[nH]ncc12 [Example 192, 5-(6-(trifluoromethyl)-1H-indazol-4-yl)pyrimidine-4-carboxylic acid]
IC50 [1]: 5.01 µM | IC50 [2]: 0.1 µM
